Consider two molecules from patent US20150361139A1, “CRYSTALLINE FORM OF LINACLOTIDE” (SANDOZ AG, priority 2013, published 2015).

Where two headings read alike, the source gives them in different places. Peptide text beside a SMILES is read from it.

A short description of data set [1]: Stability tests: solid stored in open vials at 40° C./75% RH, purity by HPLC. Type of data set: physicochemical. The settings on record: for Normalised purity: 40° C./75% RH, open vial. The protocol:
The purity of solid samples was measured in area percentage by HPLC analysis using the method reported below:
Approximately 10 mg of material was placed in each vial (ea. 1.5 mL, open, clear glass vial).
Three vials were placed into a beaker which was then stored in a sealed desiccator containing a sodium chloride solution which keeps a constant 75% RH. The desiccator was placed into an oven at 40° C.
One vial at a time was taken out after 7 days, 14 days and 1 month and analysed.
Ovens were temperature monitored using calibrated thermometers with min and max temperatures recorded throughout the stability study.

For data set [2] the following is noted: 40° C./75% RH, according to U.S. Pat. No. 8,222,201 (WO 2010/059733), cited from earlier work.

On to `C[C@@H]1NC(=O)[C@@H]2CCCN2C(=O)[C@H](CC(N)=O)NC(=O)[C@@H]2CSSC[C@H](N)C(=O)N[C@H]3CSSC[C@H](NC1=O)C(=O)N[C@@H]([C@@H](C)O)C(=O)NCC(=O)N[C@H](C(=O)N[C@@H](Cc1ccc(O)cc1)C(=O)O)CSSC[C@H](NC(=O)[C@H](Cc1ccc(O)cc1)NC(=O)[C@H](CCC(=O)O)NC3=O)C(=O)N2` [Form II, Linaclotide] (HELM PEPTIDE1{C.C.E.Y.C.C.N.P.A.C.T.G.C.Y}$PEPTIDE1,PEPTIDE1,1:R3-6:R3|PEPTIDE1,PEPTIDE1,2:R3-10:R3|PEPTIDE1,PEPTIDE1,5:R3-13:R3$$$V2.0), for which the Normalised purity in data set [1] (Day 7) stood at 100%; in data set [1] (Day 14) it was 100%; in data set [1] (Month 1), 98.9%. The “Susceptibility to degradation (chemical stability) compared with form alpha” value in data set [1] (open atmosphere of 75% RH and 40° C.) is on record as “less susceptible to degradation than form alpha”.

In the case of `C[C@@H]1NC(=O)[C@@H]2CCCN2C(=O)[C@H](CC(N)=O)NC(=O)[C@@H]2CSSC[C@H](N)C(=O)N[C@H]3CSSC[C@H](NC1=O)C(=O)N[C@@H]([C@@H](C)O)C(=O)NCC(=O)N[C@H](C(=O)N[C@@H](Cc1ccc(O)cc1)C(=O)O)CSSC[C@H](NC(=O)[C@H](Cc1ccc(O)cc1)NC(=O)[C@H](CCC(=O)O)NC3=O)C(=O)N2` [Form Alpha, Linaclotide] (HELM PEPTIDE1{C.C.E.Y.C.C.N.P.A.C.T.G.C.Y}$PEPTIDE1,PEPTIDE1,1:R3-6:R3|PEPTIDE1,PEPTIDE1,2:R3-10:R3|PEPTIDE1,PEPTIDE1,5:R3-13:R3$$$V2.0), the Normalised purity in data set [2] (Day 7) is listed as 100%; in data set [2] (Day 14), 94.8%; in data set [2] (Month 1), 91.9%.
